Patent publication US12297203B2, “Pyrrolopyrimidine ITK inhibitors” (ACLARIS THERAPEUTICS, INC., priority 2018, dated 2025)
Like-named read-outs stand apart in the source and are kept apart here.

Columns and labels:
ITK = ITK (Homo sapiens (Human), UniProt Q08881); assay: ITK inhibitor binding potency (LanthaScreen competitive binding assay); conditions: read-out: ITK Inh. IC50
Text: The ability of candidate compounds to interact with ITK is quantitated by a competitive binding assay using the LanthaScreen technology developed by Life Technologies. This assay is based on the binding of a proprietary, Alexa Fluor® 647-labeled, ATP-competitive kinase inhibitor (kinase tracer-236) to the ITK expression construct in the presence of a Europium-conjugated antibody, resulting in a FRET (fluorescence resonance energy transfer) signal. Displacement of the kinase tracer by compound results in a lower emission ratio upon excitation of the Europium chelate. Candidate compounds are designed as potential irreversible inhibitors of ITK, capable of ligating to an active site cysteine residue resulting in time dependent covalent binding. The time dependent nature of irreversible inhibition is investigated by performing the binding assay with and without a pre-incubation of compound and ITK. […] The inhibitory potency of candidate compounds is measured in 20 mM HEPES pH 7.5, 10 mM MgCl2, 0.01% BSA, 0.0005% Tween-20, and 2% DMSO in the presence of 10 nM ITK, 2 nM Eu-anti-GST antibody, and 50 nM kinase tracer-236 using a 384-well plate format. Background signal is defined in the absence of ITK and uninhibited signal is defined in the presence of vehicle (2% DMSO) alone. Compounds were evaluated in an 11 point dose-response ranging from 20 uM to 0.34 nM. The binding assays are performed under two preincubation conditions to evaluate time dependence of inhibition. For the pre-incubation assay, ITK and Eu-anti-GST antibody are pre-incubated with compound or vehicle for two hours prior to the addition of kinase tracer. The non-preincubated assay is run under conditions where ITK and Eu-anti-GST antibody are added to a mixture of compound and kinase tracer. IC50 values of compounds are determined using a 4 parameter logistical fit of emission ratio as a function of the concentration of compound.

JAK3 = JAK3 (Homo sapiens (Human), UniProt P52333); assay: JAK3 enzyme activity assay (Caliper mobility shift); format: biochemical; conditions: ATP at Km level; read-out: JAK3 Inh. IC50
Text: The ability of candidate compounds to interact with JAK3 is quantitated by a mobility shift assay using an LC3000 instrument developed by Caliper Life Sciences. This assay is based on mobility shift electrophoresis, in which fluorescently labelled product and fluorescently labelled substrate peaks are separated and detected independently. JAK3 product/substrate separation is obtained using the following instrument settings: Pressure=−1.4 psi, Downstream voltage=−2550V and Upstream voltage=−800V. The inhibitory potency of candidate compounds of JAK3 is measured in 20 mM HEPES pH 7.5, 10 mM MgCl2, 0.01% BSA, 0.0005% Tween-20, and 2% DMSO in the presence of 2.5 nM JAK3 (Life Technologies Catalog #PV3855), […] (Anaspec Catalog #AS-64106) and […] (Km level) using a 384-well plate format. Background signal is defined in the absence of enzyme and uninhibited signal is defined in the presence of vehicle (2% DMSO) alone. Compounds were evaluated in an 11 point dose-response ranging from […] to 0.34 nM. IC50 values of compounds are determined using a 4 parameter logistical fit of emission ratio as a function of the concentration of compound.

[1] = test system: ITK phosphorylation of its substrate, PLCγ1, at Y783; assay: ITK target modulation assay (PLCγ1 Y783 phosphorylation, anti-CD3 stimulated Jurkat T cells); format: cell-based; conditions: anti-CD3 Dynabeads stimulation, read-out: PLC-γ Inh. IC50
Method: Target modulation was based upon the ability of a compound to inhibit ITK phosphorylation of its substrate, PLCγ1, at Y783. Human Jurkat T cells (ATCC TIB-152) were plated in V-bottom 96 well plates at 400,000 cells/well in 80 μL medium (RPMI1640 with 10% heat inactivated serum and 55 μM 2-mercaptoethanol and supplemented with glutamine/penicillin/streptomycin). Compounds were added as 10 μL of 10× working stock solutions in medium with 1% DMSO (or medium with 1% DMSO for controls) and placed in a 37° C. incubator with gentle shaking for 1 hour. Stimulation was carried out using anti-CD3 Dynabeads (Invitrogen catalog #1151D) to activate the T cell receptor and mimic antigen presenting cells. Beads were washed and resuspended in medium at 1.84×10^8 beads/ml. Beads were added rapidly to all compound containing and stimulation only wells at 10 μL/well (bead:cell=2:1) with gentle mixing of the bead source between each addition. Wells designated ‘unstimulated’ received 10 μL of media only. The plate was immediately sealed with a plate seal and cells pelleted at 400× g for 4 minutes. Media was removed using a multichannel aspirator, 25 μL of cold hypotonic lysis buffer (VWR M334-100 ml) plus 1×HALT Protease Inhibitor Cocktail (ThermoFisher #78437), 1× Phosphatase Inhibitor Cocktail 2 (Sigma Aldrich #P5726), 1× Phosphatase Inhibitor Cocktail 3 (Sigma Aldrich #P0044) and 2 mM PMSF was added per well. Cells were incubated on ice for 30 minutes to swell the cells then lysed by pipetting 20 times using a multichannel pipet. The plates were then resealed and centrifuged for 5 minutes at 400× g to pellet the cellular debris. Two μL of the soluble component of each sample was spotted onto nitrocellulose and allowed to dry for 30 minutes. Nitrocellulose was wet in 1× Tris Buffer Saline (20 mM Tris pH7.5, 150 mM NaCl) then blocked in LiCOR Odyssey Blocking Buffer (TBS) (LiCOR #927-50000) for 1 hour at room temperature with rocking. Following blocking, nitrocellulose was incubated in LiCOR Odyssey Blocking Buffer (TBS) plus 0.2% Tween20 plus anti-phospho-PLCγ1 (Y783) antibody (CST #2821S) at 1:1000 and anti-PLCγ1 (Abcam #41433) at 1:5000 with gentle rocking overnight at 4° C. Nitrocellulose was then washed four times for 5 minutes each with TBS plus 0.1% Tween20 (TBST) then incubated in LiCOR Odyssey Blocking Buffer (TBS) plus 0.2% Tween20 plus secondary antibodies IRDye 800CW (LiCOR 926-32211) and IRDye 680RD (LiCOR 926-68070) both at 1:15,000 with gentle rocking at room temperature in the dark for 1 hour. Nitrocellulose was then washed four times for 5 minutes each with TBST at room temperature in the dark. A final rinse with TBS was done prior to imaging and quantifying using the LiCOR Odyssey Imager and software respectively.

[2] = test system: JAK1/3 phosphorylation of its substrate, STAT5, at Y694; assay: JAK1/3 target modulation assay (IL-2 stimulated STAT5 Y694 phosphorylation in PBMC); format: cell-based; conditions: Primary human peripheral blood mononuclear cells, IL-2 25 ng/mL, read-out: IL2-STAT5 Inh. IC50
Method: Target modulation was based upon the ability of a compound to inhibit JAK1/3 phosphorylation of its substrate, STAT5, at Y694. Primary human peripheral blood mononuclear cells were plated in V-bottom 96 well plates at 200,000 cells/well in 120 μL medium (RPMI-1640 with 10% fetal bovine serum, 10 mM HEPES buffer, 12.2 mM 2-mercaptoethanol, and supplemented with glutamine/penicillin/streptomycin). Compounds were added as 15 μL of 10× working stock solutions in medium with 1% DMSO (or medium with 1% DMSO for controls) and placed in a 37° C. incubator with gentle shaking for 1 hour. Stimulation was carried out using recombinant human IL-2 (R&D Systems #202-IL-050) to activate JAK1/3. IL-2 stock solution was diluted in media to 250 ng/mL and was added rapidly to all compound containing and stimulation only wells at 15 μL/well (final concentration=25 ng/mL). Wells designated ‘unstimulated’ received 15 μL of media only. The plate was placed back in a 37° C. incubator with gentle shaking for 5 minutes. After stimulation, the plates were immediately sealed with a plate seal, and cells pelleted at 400× g for 5 minutes. Media was removed using a multichannel aspirator, and 75 μL of cold Tris lysis buffer (MSD #R60TX-3) plus 1× Protease Inhibitor Solution (MSD #R70AA-1), 1× Phosphatase Inhibitor I (MSD #R70AA-1), and 1× Phosphatase Inhibitor II (MSD #R70AA-1) was added per well. Cells were incubated at 4° C. with gentle shaking for at least 30 minutes to allow for complete lysis. The plates were removed from 4° C., and 25 μL of lysate from each well was added to the corresponding well on the MSD plate. Samples were analyzed by either an MSD multiplex kit for Phospho-STAT5a,b/Total-STAT5a,b (MSD #K15163D) or an MSD single-plex kit for Phospho-STAT5a,b (MSD #K150IGD). The protocols for the respective kits were followed, and the plates were read on the MSD SECTOR S 600.

Sequence of ITK (Q08881 whole entry): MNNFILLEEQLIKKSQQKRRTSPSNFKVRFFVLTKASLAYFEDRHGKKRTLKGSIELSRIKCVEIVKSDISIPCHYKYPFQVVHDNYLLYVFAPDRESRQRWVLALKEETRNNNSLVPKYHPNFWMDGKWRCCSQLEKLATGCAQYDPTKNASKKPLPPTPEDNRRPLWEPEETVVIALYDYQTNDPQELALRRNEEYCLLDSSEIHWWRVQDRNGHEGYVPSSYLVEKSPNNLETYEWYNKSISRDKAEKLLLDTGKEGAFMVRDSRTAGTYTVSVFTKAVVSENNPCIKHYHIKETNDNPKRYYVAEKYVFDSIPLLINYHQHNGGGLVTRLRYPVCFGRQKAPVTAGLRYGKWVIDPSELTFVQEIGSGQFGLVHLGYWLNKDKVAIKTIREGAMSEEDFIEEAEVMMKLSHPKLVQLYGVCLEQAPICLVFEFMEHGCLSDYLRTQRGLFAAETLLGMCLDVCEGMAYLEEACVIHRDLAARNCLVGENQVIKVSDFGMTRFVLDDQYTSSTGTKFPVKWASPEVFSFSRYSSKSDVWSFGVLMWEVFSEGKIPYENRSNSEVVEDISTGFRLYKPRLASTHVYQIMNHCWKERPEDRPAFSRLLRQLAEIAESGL
Sequence of JAK3 (P52333 781-1124): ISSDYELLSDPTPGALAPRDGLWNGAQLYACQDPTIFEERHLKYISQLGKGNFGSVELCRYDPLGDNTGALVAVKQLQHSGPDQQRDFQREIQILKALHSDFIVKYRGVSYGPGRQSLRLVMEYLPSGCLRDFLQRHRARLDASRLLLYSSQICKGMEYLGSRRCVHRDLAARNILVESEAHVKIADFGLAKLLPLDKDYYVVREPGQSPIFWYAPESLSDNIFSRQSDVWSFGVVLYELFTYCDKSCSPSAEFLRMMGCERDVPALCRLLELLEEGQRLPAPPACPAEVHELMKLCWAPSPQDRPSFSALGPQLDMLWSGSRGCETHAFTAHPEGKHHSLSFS

IC50 (ITK) [nM]	IC50 (JAK3) [nM]	IC50 ([1]; Homo sapiens, Jurkat) [nM]	IC50 ([2]; Homo sapiens, PBMC) [nM]	IC50 ([1]; Human Jurkat T cells) [nM]	IC50 [2] [nM]	SMILES
> 100	> 100	> 1000	> 1000			C=CC(=O)N1C[C@H](Nc2ncnc3[nH]cc(CC4CC4)c23)CC[C@@H]1CC (single isomer, unassigned) [Example 40]
> 100	> 100	> 1000	> 1000			C=CC(=O)N1C[C@H](Nc2ncnc3[nH]cc(CC4CC4)c23)CC[C@@H]1C(C)C (single isomer, unassigned) [Example 43]
≤ 10	≤ 10	≤ 100	≤ 100			C=CC(=O)N1C[C@H](Nc2ncnc3[nH]cc([C@@H]4C[C@H]4COC)c23)CC[C@@H]1C (single isomer, unassigned) [Example 45]
≤ 10	≤ 10	100 to 1000	100 to 1000			C=CC(=O)N1C[C@H](Nc2ncnc3[nH]cc([C@H]4C[C@@H]4COC)c23)CC[C@@H]1C (single isomer, unassigned) [Example 46]
≤ 10	≤ 10	≤ 100	≤ 100			C=CC(=O)N1C[C@H](Nc2ncnc3[nH]cc([C@H]4[C@H](C)C4(F)F)c23)CC[C@@H]1C (single isomer, unassigned) [Example 51]
≤ 10	≤ 10	100 to 1000	100 to 1000			C=CC(=O)N1C[C@H](Nc2ncnc3[nH]cc([C@@H]4[C@@H](C)C4(F)F)c23)CC[C@@H]1C (single isomer, unassigned) [Example 52]
≤ 10	≤ 10	≤ 100	100 to 1000			C[C@H]1CC[C@@H](Nc2ncnc3[nH]cc([C@H]4CC4(F)F)c23)CN1C(=O)/C=C/CN(C)C (single isomer, unassigned) [Example 60]

Second part, the compound before the results:

SMILES	IC50 (ITK) [nM]	IC50 (JAK3) [nM]	IC50 ([1]; Homo sapiens, Jurkat) [nM]	IC50 ([2]; Homo sapiens, PBMC) [nM]	IC50 ([1]; Human Jurkat T cells) [nM]	IC50 [2] [nM]
C=CC(=O)N1C[C@@H](Nc2ncnc3[nH]cc(CC4CC4)c23)CC[C@H]1C(C)C (single isomer, unassigned) [Example 42]	≤ 10	≤ 10	100 to 1000	100 to 1000		
C=CC(=O)N1C[C@H](Nc2ncnc3[nH]cc([C@@H]4CC4(F)F)c23)CC[C@@H]1C (single isomer, unassigned) [Example 48]	≤ 10	≤ 10	≤ 100	≤ 100		
C=CC(=O)N1C[C@H](Nc2ncnc3[nH]cc([C@H]4CC4(F)F)c23)CC[C@@H]1C (single isomer, unassigned) [Example 49]	≤ 10	≤ 10	100 to 1000	100 to 1000		
C=CC(=O)N1C[C@H](Nc2ncnc3[nH]cc([C@@H]4C(C)(C)C4(F)F)c23)CC[C@@H]1C (single isomer, unassigned) [Example 54]	≤ 10	≤ 10	100 to 1000	100 to 1000		
C=CC(=O)N1C[C@H](Nc2ncnc3[nH]cc([C@H]4[C@@H](C)C4(F)F)c23)CC[C@@H]1C (single isomer, unassigned) [Example 55]	≤ 10	≤ 10	100 to 1000	≤ 100		
C=CC(=O)N1C[C@H](Nc2ncnc3[nH]cc([C@H]4[C@H](C)C4(F)F)c23)CC[C@@H]1C (single isomer, unassigned) [Example 56]	≤ 10	≤ 10			100 to 1000	100 to 1000
C/C=C/C(=O)N1C[C@H](Nc2ncnc3[nH]cc([C@H]4CC4(F)F)c23)CC[C@@H]1C (single isomer, unassigned) [Example 57]	> 100	> 100	> 1000	> 1000		
C/C=C/C(=O)N1C[C@H](Nc2ncnc3[nH]cc([C@@H]4CC4(F)F)c23)CC[C@@H]1C (single isomer, unassigned) [Example 58]	> 100	> 100	100 to 1000	> 1000		
C[C@H]1CC[C@@H](Nc2ncnc3[nH]cc([C@@H]4CC4(F)F)c23)CN1C(=O)/C=C/CN(C)C (single isomer, unassigned) [Example 61]	≤ 10	10 to 100	100 to 1000	> 1000		
C=C(C)C(=O)N1C[C@H](Nc2ncnc3[nH]cc([C@H]4CC4(F)F)c23)CC[C@@H]1C (single isomer, unassigned) [Example 62]	> 100	> 100	100 to 1000	> 1000		
